What all share (assay): growth of human tumour cells (NCI), 48 h
Assay [1] has as its system DMS-273.
Assay [2] has as its system M19-MEL.
Assay [3] concerns LXFL 529.
Assay [4] concerns XF498.
In assay [5] the test system is RXF 631.
Assay [6] concerns DMS-114.
Assay [7] relates to SNB-78.
In assay [8] the test system is HOP-18.
For assay [9], the system named is KM-20L2.

The results in this text go back to ChEMBL document CHEMBL1201862, “PubChem BioAssay data set” (2004).

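The compound was tested at five concentrations on cells cultured in 96-well plates, with a 48-hour exposure period. GI50 is the concentration that inhibits growth by half.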 Activity calls are given as the source filed them. No stated cut-off is given here; in the data, active = GI50 up to about 1.1 µM and inactive = higher.

As to `c1ccc2c(c1)CCc1c(-c3n[nH]c4c3CCc3ccccc3-4)n[nH]c1-2`, the GI50 in assay [1], in assay [2], in assay [3], in [4], in [5] and in assay [6] was > 100 µM (inactive) each time. For the same molecule, the GI50 in [7], in [8] and in assay [9] was > 100 µM (inactive) in each case.

In the case of `CCCCCCCCCCCC(=O)c1c(O)cccc1O`, the GI50 is 18.9 µM (inactive) in assay [1]; 18.8 µM (inactive) in assay [2]; 18.5 µM (inactive) in assay [3]; 18.3 µM (inactive) in assay [4]; 18.7 µM (inactive) in assay [5]; 19.2 µM (inactive) in [6]. Moreover, the GI50 in assay [7] was 21.8 µM (inactive); in [8] it was 16.2 µM (inactive); in assay [9], 21.7 µM (inactive).

On to `CCOC(=O)C1=C(Nc2cccc3ccccc23)OCC1=O`, for which the GI50 in [1], in assay [3], in [4], in assay [5], in [7] and in assay [9] was > 100 µM (inactive) throughout.

With `O=C1C=CC(=O)c2nc3c(cc21)CCC3`, the GI50 in assay [1] was 20.3 µM (inactive); in assay [2], 17.2 µM (inactive); in assay [3] it was 15.5 µM (inactive); in assay [4], 18.6 µM (inactive); in assay [5], > 100 µM (inactive); in [6], 18.3 µM (inactive). The GI50 in assay [7] is 18.5 µM (inactive); in assay [8] it was 14.5 µM (inactive).

On to `CNCCCNc1c2ccccc2nc2cccc([N+](=O)[O-])c12`, for which the GI50 was 0.0152 µM (active) in [1]; 0.00387 µM (active) in assay [2]; 0.00665 µM (active) in [3]; 0.00247 µM (active) in assay [4]; 0.0286 µM (active) in [5]; 0.00221 µM (active) in assay [6]. The GI50 in [7] was 0.00233 µM (active); in assay [8], 0.0237 µM (active); in [9] it was 0.00416 µM (active).

As to `Oc1cc2cc(-c3ccccc3)[nH]c2c2ccccc12`, the GI50 in assay [1] is 0.592 µM (active); in [2] it was 15.5 µM (inactive); in assay [3], 24.5 µM (inactive); in [4], 1.63 µM (inactive); in assay [5], 22.7 µM (inactive); in [6] it was 13.6 µM (inactive). Also, the values for the GI50 in assay [7], in assay [8] and in assay [9] were 54.6 µM (inactive), 32.7 µM (inactive) and > 96.2 µM (inactive), respectively.

Regarding `CN(C)c1ccc(C(C=C2c3ccccc3Sc3ccccc32)=C(C#N)C#N)cc1`, the GI50 was 6.81 µM (inactive) in assay [1]; > 100 µM (inactive) in [2]; 86.7 µM (inactive) in [3]; 58.7 µM (inactive) in [4]; > 100 µM (inactive) in assay [5]; 56.4 µM (inactive) in [6]. Further, the GI50 is 45.1 µM (inactive) in assay [7], > 100 µM (inactive) in assay [8] and 89.1 µM (inactive) in assay [9].

As for `Cc1ccc(S(=O)(=O)N/N=C(\c2nc3ccc(Cl)cc3nc2O)C(O)c2cccc([N+](=O)[O-])c2)cc1` (stereo not drawn), the GI50 in [1], in [2], in assay [3], in assay [4], in assay [5] and in assay [6] was > 100 µM (inactive) in each case. The GI50 in assay [7], in assay [8] and in assay [9] was > 100 µM (inactive) each time.
